From ChEMBL document CHEMBL3137667, “[Drug-induced liver injury; fourteenth updated edition of the bibliographic database of liver injuries and related drugs]” (Gastroenterol Clin Biol, 2004)

Key:
[1] = human
[2] = human; remark: listed apart in the source
[3] = human, serum
[4] = human; remark: listed apart in the source
[5] = human; remark: listed apart in the source
[6] = Highest frequency of acute liver toxicity observed during clinical trials, expressed as a percentage. [column '% AIGUE' in source]; conditions: human
[7] = human; remark: listed apart in the source
[8] = human; remark: listed apart in the source
[9] = Highest frequency of moderate liver toxicity observed during clinical trials, expressed as a percentage. [column '% BIOL' in source]; conditions: human
[10] = human; remark: listed apart in the source
[11] = human, serum; remark: listed apart in the source
[12] = Times to onset, minimal and maximal, observed in the indexed observations. [column 'DELAI' in source]; conditions: human
[13] = human, serum, 4383 h
[14] = human; remark: listed apart in the source
[15] = human; remark: listed apart in the source
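Throughout, for Hepatotoxicity (association with vascular disease): count of indexed literature references reporting vascular liver injury in humans, e.g. peliosis hepatitis, hepatic veno-occlusive disease or Budd-Chiari syndrome.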
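Throughout, for Hepatotoxicity (benign tumour): value is a count of indexed literature references citing a benign tumour confirmed by histopathology.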
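Throughout, for Hepatotoxicity (choleostasis): human cholestatic liver injury, shown by histopathology or by peak ALT or AST elevation over alkaline phosphatase ratio below 2, value counts indexed literature reports.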
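Throughout, for Hepatotoxicity (chronic liver disease): chronic liver injury confirmed by histopathology or persistently raised serum aminotransferase activity beyond 6 months, value given as the count of indexed literature references.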
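Throughout, for Hepatotoxicity (cirrhosis): value is a count of indexed literature references reporting cirrhosis confirmed by histopathology.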
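Throughout, for Hepatotoxicity (cytolytic): human cytolytic liver injury, shown by histopathology or by a ratio above 5 of peak ALT or AST elevation to alkaline phosphatase elevation, value counts indexed references.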
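Throughout, for Hepatotoxicity (granulomatous hepatitis): value is a count of indexed literature references reporting granulomatous liver disease confirmed by histopathology.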
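Throughout, for Hepatotoxicity (malignant tumour): malignant tumour confirmed by histopathology, value gives the count of indexed literature references reporting it.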
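Throughout, for Hepatotoxicity (severe hepatitis): human clinical data: severe hepatitis, meaning potentially life-threatening liver failure or clinically observed cases, the value counts how many indexed literature references report it.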
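Throughout, for Hepatotoxicity (steatosis): steatosis confirmed by histopathology, value is the count of indexed references.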

SMILES	Hepatotoxicity (association with vascular disease) [1]	Hepatotoxicity (malignant tumour) [2]	Hepatotoxicity (acute) [3]	Hepatotoxicity (choleostasis) [4]	Hepatotoxicity (granulomatous hepatitis) [5]	Hepatotoxicity (acute) [6]	Hepatotoxicity (steatosis) [7]	Hepatotoxicity (cirrhosis) [8]	Hepatotoxicity (moderate) [9]	Hepatotoxicity (severe hepatitis) [10]	Hepatotoxicity (moderate) [11]	Hepatotoxicity (time to onset) [12]	Hepatotoxicity (chronic liver disease) [13]	Hepatotoxicity (benign tumour) [14]	Hepatotoxicity (cytolytic) [15]	Hepatotoxicity (acute) ([6]; Liver)	Hepatotoxicity (moderate) ([9]; Liver)	Hepatotoxicity (severe hepatitis) ([10]; Liver)
CCOC(=O)C(C)(CC)Oc1ccc(Cc2ccc(Cl)cc2)cc1 (stereo not given) [BECLOBRATE]	0	0	2	0	0	0%	0	0	1%	2	1	4 months - 6.5 months	0	0	1			
CCOC(=O)[C@H](CCc1ccccc1)N[C@H]1CCc2ccccc2N(CC(=O)O)C1=O [BENAZEPRIL]	0	0	2	0	0	0%	0	0	0%	1	0	14 months	0	0	1			
CC(=O)Nc1ccc(OC(=O)c2ccccc2OC(C)=O)cc1 [BENORILATE]	0	0	2	0	0	0%	0	0	0%	1	0	3 weeks	0	0	2			
NC(CO)C(=O)NNCc1ccc(O)c(O)c1O (stereo not given) [BENSERAZIDE]	0	0	1	0	0	3.3%	0	0	0%	0	0	< 3 months	0	0	0			
O=C1CN=C(c2ccccc2)c2c(sc3c2CCCC3)N1 [BENTAZEPAM]	0	0	2	0	0	0%	0	1	0%	0	1	1 month - 6 months	3	0	2			
CCc1oc2ccccc2c1C(=O)c1cc(I)c(O)c(I)c1 [BENZIODARONE]	0	0	3	3	0	0%	0	0	0%	0	0	1 month - 4 months	0	0	0			
CC(C)COCC(CN(Cc1ccccc1)c1ccccc1)N1CCCC1 (stereo not given) [BEPRIDIL]	0	0	1	0	0	0%	1	0	2.8%	0	3	4 days - 20 days	0	0	1			
CC(O)(CS(=O)(=O)c1ccc(F)cc1)C(=O)Nc1ccc(C#N)c(C(F)(F)F)c1 (stereo not given) [BICALUTAMIDE]	0	0	1	0	0	0%	0	0	6%	1	1	2 days	0	0	1			
CC(C)(S)C(=O)N[C@@H](CS)C(=O)O [BUCILLAMINE]	0	0	0	0	0	0%	0	0	9.4%	0	5	2 weeks	0	0	0			
CCCC1O[C@@H]2C[C@H]3[C@@H]4CCC5=CC(=O)C=C[C@]5(C)[C@H]4[C@@H](O)C[C@]3(C)[C@]2(C(=O)CO)O1 (stereo not given in full) [BUDESONIDE]	0	0	1	0	0	0%	0	0	0%	0	0	19 days	0	0	1			
CCCCNc1cc(C(=O)O)cc(S(N)(=O)=O)c1Oc1ccccc1 [BUMETANIDE]	0	0	0	0	0		0	0			3	2 weeks - 6 months	0	0	0	0%	1.1%	0
